From patent US20250231185A1, “Coronavirus T Cell Epitopes, Megapools and Uses Thereof” (La Jolla Institute for Immunology, priority 2021, published 2025)

Tested on: CD8+ T cells
Test: Meta-analysis of published SARS-CoV-2 CD8 T cell epitope data curated in the IEDB (25 studies)
Type: cell-based, human
[1] = CD8S (D) Megapool, antigen S, dominant = recognized in 3 or more donors/studies
[2] = CD8-restricted SARS-CoV-2 epitopes, Yes = recognized by 3 or more donors/different studies
[3] = SARS-CoV-2-derived CD8 epitopes, dominant = recognized by 3 or more donors/different studies
[4] = CD8 epitopes, Yes = recognized by 3 or more donors/different studies

In the case of 1487 (NLDSKVGGNY) [compound 1487], the Dominant [1] is reported as “Yes (more dominant epitopes are defined by being recognized by 3 or more donors/different studies)”.

In the case of 1229 (FCNDPFLGVYY) [compound 1229], the Dominant [2] is reported as “Yes (more dominant epitopes are defined by being recognized by 3 or more donors/different studies)”.

882 (SMWALIISV) [compound 882] was tested, and the Dominant [3] was “Yes (more dominant epitopes are defined by being recognized by 3 or more donors/different studies)”.

1225 (GVYFASTEK) [compound 1225] was tested, and the Dominant [2] was “Yes (more dominant epitopes are defined by being recognized by 3 or more donors/different studies)”.

420 (SLVKPSFYV) [compound 420] was tested, and the Dominant [4] was “Yes (more dominant epitopes are defined by being recognized by 3 or more donors/different studies)”.

With 1490 (FQPTNGVGY) [compound 1490] the Dominant [1] was “Yes (more dominant epitopes are defined by being recognized by 3 or more donors/different studies)”.

With 833 (TFYLTNDVSFL) [compound 833] the Dominant [3] was “Yes (more dominant epitopes are defined by being recognized by 3 or more donors/different studies)”.

851 (TPKYKFVRI) [compound 851] was tested, and the Dominant [3] was “Yes (more dominant epitopes are defined by being recognized by 3 or more donors/different studies)”.

For 1140 (LLYDANYFL) [compound 1140], the Dominant [2] was “Yes (more dominant epitopes are defined by being recognized by 3 or more donors/different studies)”.

In the case of 754 (YIFFASFYY) [compound 754], the Dominant [3] is reported as “Yes (more dominant epitopes are defined by being recognized by 3 or more donors/different studies)”.

In the case of 896 (SEFSSLPSY) [compound 896], the Dominant [3] is reported as “Yes (more dominant epitopes are defined by being recognized by 3 or more donors/different studies)”.

In the case of 1498 (FTISVTTEIL) [compound 1498], the Dominant [1] is reported as “Yes (more dominant epitopes are defined by being recognized by 3 or more donors/different studies)”.

1493 (IGAEHVNNSY) [compound 1493] was tested, and the Dominant [1] was “Yes (more dominant epitopes are defined by being recognized by 3 or more donors/different studies)”.

747 (ILFTRFFYV) [compound 747] was tested, and the Dominant [3] was “Yes (more dominant epitopes are defined by being recognized by 3 or more donors/different studies)”.

1504 (MIAQYTSAL) [compound 1504] was tested, and the Dominant [1] was “Yes (more dominant epitopes are defined by being recognized by 3 or more donors/different studies)”.

In the case of 1514 (VVFLHVTYV) [compound 1514], the Dominant [1] is reported as “Yes (more dominant epitopes are defined by being recognized by 3 or more donors/different studies)”.

In the case of 451 (SYFIASFRLFA) [compound 451], the Dominant [4] is reported as “Yes (more dominant epitopes are defined by being recognized by 3 or more donors/different studies)”.

1480 (WTAGAAAYY) [compound 1480] was tested, and the Dominant [1] was “Yes (more dominant epitopes are defined by being recognized by 3 or more donors/different studies)”.

In the case of 467 (HLRIAGHHLGR) [compound 467], the Dominant [4] is reported as “Yes (more dominant epitopes are defined by being recognized by 3 or more donors/different studies)”.

In the case of 1298 (NLDSKVGGNY) [compound 1298], the Dominant [2] is reported as “Yes (more dominant epitopes are defined by being recognized by 3 or more donors/different studies)”.

For 427 (FLFLTWICL) [compound 427], the Dominant [4] was “Yes (more dominant epitopes are defined by being recognized by 3 or more donors/different studies)”.

1180 (VFITLCFTLK) [compound 1180] was tested, and the Dominant [2] was “Yes (more dominant epitopes are defined by being recognized by 3 or more donors/different studies)”.

For 887 (TLGVYDYLVST) [compound 887], the Dominant [3] was “Yes (more dominant epitopes are defined by being recognized by 3 or more donors/different studies)”.

1482 (RISNCVADY) [compound 1482] was tested, and the Dominant [1] was “Yes (more dominant epitopes are defined by being recognized by 3 or more donors/different studies)”.

With 1469 (YTNSFTRGVY) [compound 1469] the Dominant [1] was “Yes (more dominant epitopes are defined by being recognized by 3 or more donors/different studies)”.

With 1104 (MDLFMRIFTI) [compound 1104] the Dominant [2] was “Yes (more dominant epitopes are defined by being recognized by 3 or more donors/different studies)”.

For 1513 (APHGVVFLHV) [compound 1513], the Dominant [1] was “Yes (more dominant epitopes are defined by being recognized by 3 or more donors/different studies)”.

1472 (GVYFASTEK) [compound 1472] was tested, and the Dominant [1] was “Yes (more dominant epitopes are defined by being recognized by 3 or more donors/different studies)”.

In the case of 476 (ATSRTLSYY) [compound 476], the Dominant [4] is reported as “Yes (more dominant epitopes are defined by being recognized by 3 or more donors/different studies)”.

In the case of 1483 (CVADYSVLY) [compound 1483], the Dominant [1] is reported as “Yes (more dominant epitopes are defined by being recognized by 3 or more donors/different studies)”.

For 1501 (LLQYGSFCT) [compound 1501], the Dominant [1] was “Yes (more dominant epitopes are defined by being recognized by 3 or more donors/different studies)”.

With 497 (YYRRATRRIR) [compound 497] the Dominant [4] was “Yes (more dominant epitopes are defined by being recognized by 3 or more donors/different studies)”.

With 1287 (CVADYSVLY) [compound 1287] the Dominant [2] was “Yes (more dominant epitopes are defined by being recognized by 3 or more donors/different studies)”.

For 1187 (IQYIDIGNY) [compound 1187], the Dominant [2] was “Yes (more dominant epitopes are defined by being recognized by 3 or more donors/different studies)”.

With 437 (NRFLYIIKL) [compound 437] the Dominant [4] was “Yes (more dominant epitopes are defined by being recognized by 3 or more donors/different studies)”.

1251 (LPQGFSAL) [compound 1251] was tested, and the Dominant [2] was “Yes (more dominant epitopes are defined by being recognized by 3 or more donors/different studies)”.

1212 (STQDLFLPFF) [compound 1212] was tested, and the Dominant [2] was “Yes (more dominant epitopes are defined by being recognized by 3 or more donors/different studies)”.

With 484 (RYRIGNYKL) [compound 484] the Dominant [4] was “Yes (more dominant epitopes are defined by being recognized by 3 or more donors/different studies)”.

In the case of 781 (STFNVPMEK) [compound 781], the Dominant [3] is reported as “Yes (more dominant epitopes are defined by being recognized by 3 or more donors/different studies)”.

In the case of 883 (NYSGVVTTVMF) [compound 883], the Dominant [3] is reported as “Yes (more dominant epitopes are defined by being recognized by 3 or more donors/different studies)”.

In the case of 1507 (NQKLIANQF) [compound 1507], the Dominant [1] is reported as “Yes (more dominant epitopes are defined by being recognized by 3 or more donors/different studies)”.

For 1511 (YHLMSFPQSA) [compound 1511], the Dominant [1] was “Yes (more dominant epitopes are defined by being recognized by 3 or more donors/different studies)”.

1297 (KLPDDFTGCV) [compound 1297] was tested, and the Dominant [2] was “Yes (more dominant epitopes are defined by being recognized by 3 or more donors/different studies)”.

848 (TSEDMLNPNY) [compound 848] was tested, and the Dominant [3] was “Yes (more dominant epitopes are defined by being recognized by 3 or more donors/different studies)”.

In the case of 1181 (IMLIIFWFSL) [compound 1181], the Dominant [2] is reported as “Yes (more dominant epitopes are defined by being recognized by 3 or more donors/different studies)”.

For 723 (ASMPTTIAK) [compound 723], the Dominant [3] was “Yes (more dominant epitopes are defined by being recognized by 3 or more donors/different studies)”.

1502 (LLFNKVTLA) [compound 1502] was tested, and the Dominant [1] was “Yes (more dominant epitopes are defined by being recognized by 3 or more donors/different studies)”.

For 475 (ATSRTLSYYK) [compound 475], the Dominant [4] was “Yes (more dominant epitopes are defined by being recognized by 3 or more donors/different studies)”.

For 1117 (ITLKKRWQLAL) [compound 1117], the Dominant [2] was “Yes (more dominant epitopes are defined by being recognized by 3 or more donors/different studies)”.

For 1174 (RARSVSPKL) [compound 1174], the Dominant [2] was “Yes (more dominant epitopes are defined by being recognized by 3 or more donors/different studies)”.

For 1233 (KSWMESEFRVY) [compound 1233], the Dominant [2] was “Yes (more dominant epitopes are defined by being recognized by 3 or more donors/different studies)”.

1503 (LTDEMIAQY) [compound 1503] was tested, and the Dominant [1] was “Yes (more dominant epitopes are defined by being recognized by 3 or more donors/different studies)”.

With 860 (VLAWLYAAV) [compound 860] the Dominant [3] was “Yes (more dominant epitopes are defined by being recognized by 3 or more donors/different studies)”.

1470 (STQDLFLPFF) [compound 1470] was tested, and the Dominant [1] was “Yes (more dominant epitopes are defined by being recognized by 3 or more donors/different studies)”.

In the case of 477 (ASQRVAGDSGFAAY) [compound 477], the Dominant [4] is reported as “Yes (more dominant epitopes are defined by being recognized by 3 or more donors/different studies)”.

For 1178 (VQELYSPIFLIV) [compound 1178], the Dominant [2] was “Yes (more dominant epitopes are defined by being recognized by 3 or more donors/different studies)”.

852 (VRIQPGQTF) [compound 852] was tested, and the Dominant [3] was “Yes (more dominant epitopes are defined by being recognized by 3 or more donors/different studies)”.

With 1477 (IYSKHTPINL) [compound 1477] the Dominant [1] was “Yes (more dominant epitopes are defined by being recognized by 3 or more donors/different studies)”.

1508 (VLNDILSRL) [compound 1508] was tested, and the Dominant [1] was “Yes (more dominant epitopes are defined by being recognized by 3 or more donors/different studies)”.

In the case of 861 (FLNRFTTTL) [compound 861], the Dominant [3] is reported as “Yes (more dominant epitopes are defined by being recognized by 3 or more donors/different studies)”.

For 1119 (ALSKGVHFV) [compound 1119], the Dominant [2] was “Yes (more dominant epitopes are defined by being recognized by 3 or more donors/different studies)”.

429 (LQFAYANRNRFLY) [compound 429] was tested, and the Dominant [4] was “Yes (more dominant epitopes are defined by being recognized by 3 or more donors/different studies)”.

In the case of 471 (TVATSRTLSYYK) [compound 471], the Dominant [4] is reported as “Yes (more dominant epitopes are defined by being recognized by 3 or more donors/different studies)”.

In the case of 457 (SMWSFNPET) [compound 457], the Dominant [4] is reported as “Yes (more dominant epitopes are defined by being recognized by 3 or more donors/different studies)”.
